# Data from US11591336B2 (Relay Therapeutics, Inc., priority 2017, dated 2023).
# Counter-ions that a name gives are not always drawn.
# Target: SHP2 (Homo sapiens (Human), UniProt Q06124)
# Assay: SHP2 Allosteric Inhibition Assay (DiFMUP prompt fluorescence)
# Type: biochemical
# Settings: 0.25 nM SHP2 activated with 0.5 μM peptide IRS1_pY1172(dPEG8)pY1222; substrate DiFMUP 100 μM; 25° C.
row,SMILES,IC50 [µM]
1,C[C@@H]1OCC2(CCN(c3cnc4c(N5CCCc6nc(C#N)ccc65)n[nH]c4n3)CC2)[C@@H]1N [Compound 248],< 1
2,"NCC1(C(N)=O)CCN(c2cnc3c(N4CCCc5ncccc54)n[nH]c3n2)CC1 [Compound 180, 4-(aminomethyl)-1-(3-(3,4-dihydro-1,5-naphthyridin-1(2H)-yl)-1H-pyrazolo[3,4-b]pyrazin-6-yl)piperidine-4-carboxamide]",< 1
3,N[C@H]1CCCC12CCN(c1cnc3c(N4CCCc5ncccc54)n[nH]c3n1)CC2 [Compound 211],< 1
4,"C[C@@H]1OCC2(CCN(c3cnc4c(N5CCCc6ncccc65)n[nH]c4n3)CC2)C1O (stereo partly drawn) [Compound 201, (3S)-8-(3-(3,4-dihydro-1,5-naphthyridin-1(2H)-yl)-1H-pyrazolo[3,4-b]pyrazin-6-yl)-3-methyl-2-oxa-8-azaspiro[4.5]decan-4-ol]",≥ 10
5,CC1(CN)CCN(c2cnc3c(N4CCC(c5ccccc5)c5ccccc54)n[nH]c3n2)CC1 (stereo not drawn) [Compound 96],< 1
6,C[C@@H]1OCC2(CCN(c3cnc4c(N5CCCc6c(-c7cnn(C)c7)cccc65)n[nH]c4n3)CC2)[C@@H]1N [Compound 209],< 1
7,"CC1(CN)CCN(c2cnc3c(N4CCc5c(C(N)=O)cccc54)n[nH]c3n2)CC1 [Compound 108, 1-(6-(4-(aminomethyl)-4-methylpiperidin-1-yl)-1H-pyrazolo[3,4-b]pyrazin-3-yl)indoline-4-carboxamide]",< 1
8,"CC1(CN)CCN(c2cnc3c(N4CCC(O)c5ccccc54)n[nH]c3n2)CC1 (stereo not drawn) [Compound 119, 1-(6-(4-(aminomethyl)-4-methylpiperidin-1-yl)-1H-pyrazolo[3,4-b]pyrazin-3-yl)-1,2,3,4-tetrahydroquinolin-4-ol]",< 1
9,"CC1(CN)CCN(c2cnc3c(N4CCCc5nc(N)ccc54)n[nH]c3n2)CC1 [Compound 51, 5-(6-(4-(aminomethyl)-4-methylpiperidin-1-yl)-1H-pyrazolo[3,4-b]pyrazin-3-yl)-5,6,7,8-tetrahydro-1,5-naphthyridin-2-amine]",< 1
10,"COC1(CN)CCN(c2cnc3c(N4CCCc5ncccc54)n[nH]c3n2)CC1 [Compound 101, (1-(3-(3,4-dihydro-1,5-naphthyridin-1(2H)-yl)-1H-pyrazolo[3,4-b]pyrazin-6-yl)-4-methoxypiperidin-4-yl)methanamine]",< 1
11,"CC1(CN)CCN(c2cnc3c(N4CCC(C(F)F)c5cc(C#N)ccc54)n[nH]c3n2)CC1 (stereo not drawn) [Compound 181, 1-{6-[4-(aminomethyl)-4-methylpiperidin-1-yl]-1H-pyrazolo[3,4-b]pyrazin-3-yl}-4-(difluoromethyl)-1,2,3,4-tetrahydroquinoline-6-carbonitrile]",< 1
12,COC(=O)c1ccc2c(n1)CCCN2c1n[nH]c2nc(N3CCC(C)(CN)CC3)cnc12 [Compound 81],< 1
13,C[C@@H]1OCC2(CCN(c3cnc4c(N5CCc6ncccc6C5)n[nH]c4n3)CC2)[C@@H]1N [Compound 267],< 1
14,"C[C@@H]1C[C@@H](N)CCN1c1cnc2c(N3CCCc4ncccc43)n[nH]c2n1 (stereo in doubt) [Compound 74, rac-(2R,4S)-1-(3-(3,4-dihydro-1,5-naphthyridin-1(2H)-yl)-1H-pyrazolo[3,4-b]pyrazin-6-yl)-2-methylpiperidin-4-amine]",< 1
15,"NCC1(CO)CCN(c2cnc3c(N4CCCc5ncccc54)n[nH]c3n2)CC1 [Compound 82, (4-(aminomethyl)-1-(3-(3,4-dihydro-1,5-naphthyridin-1(2H)-yl)-1H-pyrazolo[3,4-b]pyrazin-6-yl)piperidin-4-yl)methanol dihydrochloride]",< 1
16,CC1(CN)CCN(c2cnc3c(N4CCCc5cc(S(C)(=O)=O)ccc54)n[nH]c3n2)CC1 [Compound 92],< 1
17,c1cnc2c(c1)N(c1n[nH]c3nc(N4CCCCC4)cnc13)CCC2 [Compound 155],≥ 10
18,C[C@@H]1OCC2(CCN(c3cnc4c(N5CCCc6c(C7CCOCC7)cccc65)n[nH]c4n3)CC2)[C@@H]1N [Compound 251],< 1
19,"CC1(CN)CCN(c2cnc3c(C(=O)c4ccccc4)n[nH]c3n2)CC1 [Compound 18, (6-(4-(aminomethyl)-4-methylpiperidin-1-yl)-1H-pyrazolo[3,4-b]pyrazin-3-yl)(phenyl)methanone]",1 to 10
20,Cc1c(C#N)ccc2c1CCCN2c1n[nH]c2nc(N3CCC(C)(CN)CC3)cnc12 [Compound 120],< 1
21,CC1(N)CCN(c2cnc3c(N4CCCc5c(-c6nccs6)cccc54)n[nH]c3n2)CC1 [Compound 64],< 1
22,CC1(CN)CCN(c2cnc3c(N4CCCc5cc(C(F)(F)F)ccc54)n[nH]c3n2)CC1 [Compound 63],< 1
23,"C[C@@H]1CCN(c2n[nH]c3nc(N4CCC(C)(CN)CC4)cnc23)c2ccccc21 [Compound 49, (R)-(4-methyl-1-(3-(4-methyl-3,4-dihydroquinolin-1(2H)-yl)-1H-pyrazolo[3,4-b]pyrazin-6-yl)piperidin-4-yl)methanamine]",< 1
24,"C[C@H]1CCN(c2n[nH]c3nc(N4CCC(C)(CN)CC4)cnc23)c2ccc(-c3nnc[nH]3)nc21 [Compound 198, 1-(4-methyl-1-{3-[(4S)-4-methyl-6-(4H-1,2,4-triazol-3-yl)-1,2,3,4-tetrahydro-1,5-naphthyridin-1-yl]-1H-pyrazolo[3,4-b]pyrazin-6-yl}piperidin-4-yl)methanamine]",< 1

# Now from value to molecule:
row,IC50 [µM],SMILES
1,< 1,C[C@@H]1OCC2(CCN(c3cnc4c(N5CCCc6c(CS(C)(=O)=O)cccc65)n[nH]c4n3)CC2)[C@@H]1N [Compound 455]
2,< 1,C[C@@H]1OCC2(CCN(c3cnc4c(N5CCCc6nc(-c7cncs7)ccc65)n[nH]c4n3)CC2)[C@@H]1N [Compound 356]
3,< 1,"CC1(N)CCN(c2cnc3c(Sc4cc[nH]c(=O)c4Cl)n[nH]c3n2)CC1 [Compound 477, 4-((6-(4-amino-4-methylpiperidin-1-yl)-1H-pyrazolo[3,4-b]pyrazin-3-yl)thio)-3-chloropyridin-2(1H)-one]"
4,< 1,C[C@@H]1OCC2(CCN(c3cnc4c(N5CCOc6nc(-c7cnn(C)c7)ccc65)n[nH]c4n3)CC2)[C@@H]1N [Compound 324]
5,< 1,C[C@@H]1OCC2(CCN(c3cnc4c(N5CCCc6cc(-c7cnn(C)c7)ccc65)n[nH]c4n3)CC2)[C@@H]1N [Compound 365]
6,< 1,"N[C@@H]1C[C@H](O)CC12CCN(c1cnc3c(N4CCCc5ncccc54)n[nH]c3n1)CC2 [Compound 467, (2R,4R)-4-amino-8-[3-(1,2,3,4-tetrahydro-1,5-naphthyridin-1-yl)-1H-pyrazolo[3,4-b]pyrazin-6-yl]-8-azaspiro[4.5]decan-2-ol]"
7,< 1,C[C@@H]1OCC2(CCN(c3cnc4c(N5CCCc6c5ccnc6-c5ccnn5C)n[nH]c4n3)CC2)[C@@H]1N [Compound 303]
8,< 1,C[C@@H]1OCC2(CCN(c3cnc4c(N5CCC(C(F)F)c6cc(C#N)ccc65)n[nH]c4n3)CC2)[C@@H]1N (stereo partly drawn) [Compound 283]
9,< 1,"CC1(CN)CCN(c2cnc3c(Nc4ccnc(N)c4Cl)n[nH]c3n2)CC1 [Compound 498, N^4-(6-(4-(aminomethyl)-4-methylpiperidin-1-yl)-1H-pyrazolo[3,4-b]pyrazin-3-yl)-3-chloropyridine-2,4-diamine]"
10,< 1,C[C@@H]1OCC2(CCN(c3cnc4c(N5CCCc6c5cccc6S(=O)(=O)C5CC5)n[nH]c4n3)CC2)[C@@H]1N [Compound 457]
11,< 1,COC(=O)Cc1cccc2c1CCCN2c1n[nH]c2nc(N3CCC4(CC3)CO[C@@H](C)[C@H]4N)cnc12 [Compound 461]
12,< 1,Cn1cc(-c2ccc3c(n2)CCCN3c2n[nH]c3nc(N4CCC5(CC4)COC[C@H]5N)cnc23)cn1 [Compound 290]
13,< 1,Cc1cccc2c1N(C)CCN2c1n[nH]c2nc(N3CCC4(CC3)CO[C@@H](C)[C@H]4N)cnc12 [Compound 384]
14,< 1,CNC(=O)N1CCN(c2n[nH]c3nc(N4CCC5(CC4)CO[C@@H](C)[C@H]5N)cnc23)c2ccccc21 [Compound 342]
15,< 1,COCCS(=O)(=O)c1cccc2c1CCCN2c1n[nH]c2nc(N3CCC4(CC3)CO[C@@H](C)[C@H]4N)cnc12 [Compound 460]
16,< 1,"C[C@@H]1OCC2(CCN(c3cnc4c(Oc5ccnc(Cl)c5Cl)n[nH]c4n3)CC2)[C@@H]1N [Compound 512, (3S,4S)-8-(3-((2,3-dichloropyridin-4-yl)oxy)-1H-pyrazolo[3,4-b]pyrazin-6-yl)-3-methyl-2-oxa-8-azaspiro[4.5]decan-4-amine]"
17,< 1,"CNC(=O)c1ccc2c(n1)[C@H](C)CCN2c1n[nH]c2nc(N3CCC4(CC3)CO[C@@H](C)[C@H]4N)cnc12 [Compound 363, (8R)-5-{6-[(3S,4S)-4-amino-3-methyl-2-oxa-8-azaspiro[4.5]decan-8-yl]-1H-pyrazolo[3,4-b]pyrazin-3-yl}-N,8-dimethyl-5,6,7,8-tetrahydro-1,5-naphthyridine-2-carboxamide]"
18,< 1,C[C@@H]1OCC2(CCN(c3cnc4c(N5CCCc6c5cccc6N5CCCS5(=O)=O)n[nH]c4n3)CC2)[C@@H]1N [Compound 392]
19,< 1,"C[C@@H]1CCN(c2n[nH]c3nc(N4CCC5(CC4)CO[C@@H](C)[C@H]5N)cnc23)c2ccc(-c3noc(=O)[nH]3)nc21 (relative stereo) [Compound 450, 3-[(8R*)-5-{6-[(3S,4S)-4-amino-3-methyl-2-oxa-8-azaspiro[4.5]decan-8-yl]-1H-pyrazolo[3,4-b]pyrazin-3-yl}-8-methyl-5,6,7,8-tetrahydro-1,5-naphthyridin-2-yl]-4,5-dihydro-1,2,4-oxadiazol-5-one]"
20,< 1,C[C@@H]1OCC2(CCN(c3cnc4c(N5CCCc6c5ccc(C#N)c6[C@@H]5CC(=O)N(C)C5)n[nH]c4n3)CC2)[C@@H]1N [Compound 519]
21,< 1,"C[C@@H]1CCN(c2n[nH]c3nc(N4CCC5(CC4)CO[C@@H](C)[C@H]5N)cnc23)c2ccc(-c3ncc[nH]3)nc21 (relative stereo) [Compound 448, (3S,4S)-8-{3-[(4R*)-6-(1H-imidazol-2-yl)-4-methyl-1,2,3,4-tetrahydro-1,5-naphthyridin-1-yl]-1H-pyrazolo[3,4-b]pyrazin-6-yl)-3-methyl-2-oxa-8-azaspiro[4.5]decan-4-amine hydrochloride]"
